# Results taken from patent publication US8765712B2, “Agent for preventing and treating pityriasis versicolor” (Justus-Liebig-Universitaet Giessen, priority 2009, dated 2014).
# “Also recorded” adds a separate entry of the source.
# Columns and labels:
# M. furfur CBS 1878 = test: Agar diffusion assay on pigment-inducing medium (p-agar) with TRP as sole nitrogen source; format: cell-based, Malassezia furfur
# Experimental: The pigment-inducing medium (p-agar) is composed of (for 1 liter medium)
# After autoclaving for 30 min at 1 bar, the following is added:
# At approx. 50° C., the following heat-labile component is added:
# The pH value is approximately pH 5.0.
# Each 25 ml of the medium are poured into petri dishes with a diameter of 10 cm. A suspension of M. furfur CBS 1878 (approx. 5 inoculation loops of a strain previously grown on Dixon's agar) is suspended in 1 ml aq. dest., transferred to the p-agar and spread by tilting the plate. […] The pigment composition can be determined after extraction and separation via thin layer chromatography.
# For this purpose, M. furfur CBS 1878 is spread on the surface of an agar plate with pigment-inducing medium as describe above, subsequently 4 mm-holes are punched into the agar using a sterile punch. […] The agar diffusion assay is performed with transaminase inhibitor e.g. aminooxyacetate (Sigma) in water, which is adjusted to pH 5 with 1 n NaOH. Concentrations are 0.05 molar top left; 0.1 molar top right; 0.25 molar bottom left, and 0.5 molar bottom right.
# pityriasis versicolor = test: Topical application in humans; format: in vivo
# From the text: Transaminase inhibitors such as aminooxyacetate and/or cycloserine, e.g. D-cycloserine, DL-cycloserine, L-cycloserine or one of the derivatives thereof like e.g. terizidone are suitable for an application in humans. A topical application of 5% in unguentum emulsificans aquosum, applied over several days, is well tolerated without side effects. For prophylactic purposes, a 0.05-5% w/w preparation is used, preferably as shaking mixture/suspension cutanea aquosa, aqueous, oily, or alcoholic suspension, emulsion, paste, cream, ointment, spray, lipophilic gel, hydrophilic gel or plaster, shampoo, bath additive or mud, since the entire body should be treated if possible. For prophylaxis, application is performed daily up to several-day intervals. The same applies to the therapeutic use. D-cycloserine is preferably used in aqueous solution, e.g. 0.2 molar, adjusted to pH 7 with e.g. phosphate buffer.
# M. furfur = test: Agar diffusion assay on complete medium Dixon's agar; settings: 4 days, concentrations as in FIG. 1 (0.05-0.5 molar)
# Experimental: For this purpose, an identical experimental approach as described above is chosen and the fungus is grown on a complete medium Dixon's agar for 4 days. Transaminase inhibitor, e.g. aminooxyacetate solution (e.g. Sigma) or D-cycloserine, DL-cycloserine, L-cycloserine or a derivative thereof such as e.g. terizidone, is added in above mentioned concentrations at the beginning of the experiment.
SMILES,suppression of pigment formation in vitro (M. furfur CBS 1878),suppression of pigment formation in vivo in humans (pityriasis versicolor),also measured
NC1CONC1=O (racemic) [DL-cycloserine],comparable suppression,comparable suppression,–
"Cl.NOCC(=O)O.NOCC(=O)O [aminooxyacetate, O-(carboxymethyl)hydroxylamine hemihydrochloride]",–,–,"pigment synthesis (tryptophan-dependent pathway) (M. furfur CBS 1878; 4-days old culture, TRP as sole nitrogen source, 20 μl in 4 mm holes, 0.05, 0.1, 0.25, 0.5 molar in water, pH 5, hemihydrochloride): completely inhibited; also recorded: abolished; growth of the fungus (M. furfur CBS 1878; pigment-inducing medium, TRP as sole nitrogen source, 0.05-0.5 molar, pH 5): inhibited; effect of specific inhibition of transamination on complete medium (M. furfur): no effect"
N[C@H]1CONC1=O [L-cycloserine],comparable suppression,comparable suppression,–
O=C1NOCC1/N=C/c1ccc(/C=N/C2CONC2=O)cc1 (stereo not drawn) [terizidone],inhibit pigment formation,–,–
N[C@@H]1CONC1=O [D-cycloserine],comparable suppression,comparable suppression,"healing of lesions (pityriasis versicolor; aqueous solution 0.2 molar, pH 7 (phosphate buffer), twice a day, after three days): complete healing of lesions; side effects / tolerability (pityriasis versicolor; aqueous solution 0.2 molar, pH 7, twice a day): without side effects and is very well tolerated"
